Tests used:
[1] = test system: intracerebral W256 mammary carcinomas; conditions: rats, even at the study's lowest dose of corticorelin acetate; cited from earlier work
[2] = test system: patients with primary or secondary brain tumors (peritumoral brain edema); assay: Open-label extension study: adverse events and safety
Procedure: Eligible patients with primary or secondary brain tumors, who had previously participated in one of two randomized, double-blind Phase III trials, were then enrolled in an open-label extension study. As shown in FIG. 1 patients that participated in the Phase III studies that received XERECEPT (corticorelin acetate) 1 mg twice daily and dexamethasone or placebo and dexamethasone or dexamethasone alone were enrolled in the open label extension study. One of the goals of the open label study was to study the maximum dexamethasone reduction in each patient.
In the open-labeled extension study, patients returned at 4-week intervals and completed assessments that included adverse events, dexamethasone dose, and steroid side-effects. […] Net cumulative change in dexamethasone dose (NCD) for each patient was determined by the change in dexamethasone dose from baseline for each visit. The net sum of these changes accounted for duration, direction, and amount of dexamethasone dose change.

[3] = test system: RG2 glioma tumor cells; conditions: rats, cited from earlier work
[4] = test system: patients with primary or secondary brain tumors (peritumoral brain edema); assay: Open-label extension study: improvement of steroid-related conditions; type: in vivo, human
Procedure: In these 8 patients, the mean NCD was −9.8 mg/d; the median NCD was −6.5 mg/d (0 to −36 mg/d).
Mean baseline dexamethasone dose was similar in patients with reduced NCD (6.2 mg) and those with increased NCD (6.3 mg). Improvement or resolution of baseline steroid-related conditions correlated with NCD. Such improvement was observed only in patients whose NCD was reduced or those who took no dexamethasone from baseline to date extraction, as shown in FIG. 3. FIG. 3 is flow chart depicting the net cumulative change in dexamethasone dose and steroid-related adverse events. In contrast, worsening or new onset of steroid-related AEs was confined to patients whose NCD was increased, with one exception—a patient who initiated dexamethasone ≦2 weeks prior to baseline. Improvement was most frequently observed in Cushingoid appearance (5 AEs) myopathy (4 AEs), and insomnia (2 AEs) followed by weight gain, bloating, pedal edema, polyuria, skin striae, and Herpes zoster rash (1 AE each). Median time to initial improvement of steroid-related conditions was 12 weeks (1 to 36 weeks).

[5] = test system: patients with primary or secondary brain tumors (peritumoral brain edema); conditions: interim report (SNO 2006); 20 subjects on corticorelin acetate for at least 4 weeks; cited from earlier work
[6] = test system: vascular leakage of plasma constituents; conditions: systemic administration; response to injury or inflammatory mediators; cited from earlier work
[7] = test system: patients with peritumoral brain edema; conditions: cited from earlier work
[8] = test system: patients with primary or secondary brain tumors (peritumoral brain edema); assay: Open-label extension study: dexamethasone dose reduction (net cumulative change in dexamethasone dose, NCD); type: in vivo, human
Description: Eligible patients with primary or secondary brain tumors, who had previously participated in one of two randomized, double-blind Phase III trials, were then enrolled in an open-label extension study. […] One of the goals of the open label study was to study the maximum dexamethasone reduction in each patient.

[9] = Open-label extension study: serial serum cortisol levels; type: in vivo, human; conditions: for AM serum cortisol, one patient: reference range 5-25 μg/dL
Procedure: Serial serum cortisol levels were obtained for 16 patients, and were normal or low in 15 (94%) of the 16 patients. In one patient, AM serum cortisol (reference range 5-25 μg/dL) was low on a dexamethasone dose of 2.5 mg/d, moderately elevated (39 μg/dL) after discontinuation of dexamethasone for 4 weeks, then normalized (25 μg/dL) after 16 weeks off dexamethasone, and again low (0.4 μg/dL) after 8 weeks on dexamethasone at 7.0-8.0 mg/d.

[10] = test system: patients with primary or secondary brain tumors (peritumoral brain edema); conditions: interim report (SNO 2006); 8 of 18 subjects with such conditions at baseline; cited from earlier work

CC[C@H](C)[C@H](NC(=O)[C@@H](NC(=O)[C@H](CCC(=O)O)NC(=O)[C@H](CCSC)NC(=O)[C@H](CC(C)C)NC(=O)[C@H](CCCCN)NC(=O)[C@H](CCCNC(=N)N)NC(=O)[C@H](CC(N)=O)NC(=O)[C@H](CO)NC(=O)[C@H](Cc1c[nH]cn1)NC(=O)[C@H](C)NC(=O)[C@H](CCC(N)=O)NC(=O)[C@H](CCC(N)=O)NC(=O)[C@H](C)NC(=O)[C@H](CC(C)C)NC(=O)[C@H](CCC(N)=O)NC(=O)[C@H](CCC(=O)O)NC(=O)[C@H](C)NC(=O)[C@H](CCCNC(=N)N)NC(=O)[C@H](C)NC(=O)[C@H](CCSC)NC(=O)[C@H](CCC(=O)O)NC(=O)[C@H](CC(C)C)NC(=O)[C@@H](NC(=O)[C@H](CCC(=O)O)NC(=O)[C@H](CCCNC(=N)N)NC(=O)[C@H](CC(C)C)NC(=O)[C@H](CC(C)C)NC(=O)[C@H](Cc1c[nH]cn1)NC(=O)[C@H](Cc1ccccc1)NC(=O)[C@@H](NC(=O)[C@H](CC(C)C)NC(=O)[C@H](CC(=O)O)NC(=O)[C@H](CC(C)C)NC(=O)[C@H](CO)NC(=O)[C@@H](NC(=O)[C@@H]1CCCN1C(=O)[C@@H]1CCCN1C(=O)[C@H](CCC(=O)O)NC(=O)[C@H](CCC(=O)O)NC(=O)[C@@H](N)CO)[C@@H](C)CC)[C@@H](C)O)C(C)C)[C@@H](C)CC)C(N)=O [corticorelin acetate]
Effect on the anti-edematous effect of dexamethasone [1]: enhance substantially the anti-edematous effect of dexamethasone | Deaths: relation to study drug ([2]; four patients died between 1-40 days after the last dose): all because of conditions not related to study drug | All adverse events, Mild ([2]; in vivo): 3 (15.0) n (%) | All adverse events, Moderate ([2]; in vivo): 3 (15.0) n (%) | All adverse events, Severe ([2]; in vivo): 1 (5.0) n (%) | All adverse events, all severities (last column, no head) ([2]; in vivo): 7 (35.0) n (%) | Eyelid edema, Mild ([2]; in vivo): 1 (5.0) n (%) | Eyelid edema, all severities (last column, no head) ([2]; in vivo): 1 (5.0) n (%) | Flushing, Mild ([2]; in vivo): 3 (15.0) n (%) | Flushing, Moderate ([2]; in vivo): 2 (10.0) n (%) | Flushing, all severities (last column, no head) ([2]; in vivo): 5 (25.0) n (%) | Headache, Severe ([2]; in vivo): 1 (5.0) n (%) | Headache, all severities (last column, no head) ([2]; in vivo): 1 (5.0) n (%) | Injection site erythema, Mild ([2]; in vivo): 4 (20.0) n (%) | Injection site erythema, Moderate ([2]; in vivo): 1 (5.0) n (%) | Injection site erythema, all severities (last column, no head) ([2]; in vivo): 5 (25.0) n (%) | Injection site reaction, Mild ([2]; in vivo): 2 (10.0) n (%) | Injection site reaction, Moderate ([2]; in vivo): 1 (5.0) n (%) | Injection site reaction, all severities (last column, no head) ([2]; in vivo): 3 (15.0) n (%) | Nausea, Moderate ([2]; in vivo): 1 (5.0) n (%) | Nausea, all severities (last column, no head) ([2]; in vivo): 1 (5.0) n (%) | Number of SAEs ([2]; in vivo): 12 SAEs | Photophobia, Moderate ([2]; in vivo): 1 (5.0) n (%) | Photophobia, all severities (last column, no head) ([2]; in vivo): 1 (5.0) n (%) | SAEs attributed to corticorelin acetate ([2]; in vivo): none of which were attributed to corticorelin acetate | Safety and tolerability of long-term treatment ([2]; in vivo): safe and well-tolerated | Survival versus dexamethasone alone ([3]; administered chronically): significantly prolonged survival | Effect on tumoral and peritumoral edema ([3]; intravenous infusion): reduce tumoral and peritumoral edema | Patients with improvement or resolution of steroid-related conditions ([4]; 8 of the 18 patients with such conditions at baseline, 17 conditions): 45% | Mean NCD ([4]; 8 patients with improvement or resolution of steroid-related conditions): -9.8 mg/day | Median NCD ([4]; 8 patients with improvement or resolution of steroid-related conditions, range 0 to −36 mg/d): -6.5 mg/day | Median time to initial improvement of steroid-related conditions ([4]; range 1 to 36 weeks): 12 weeks | Improvement observed in Cushingoid appearance ([4]; steroid-related conditions): 5 AEs | Improvement observed in insomnia ([4]; steroid-related conditions): 2 AEs | Improvement observed in myopathy ([4]; steroid-related conditions): 4 AEs | Improvement observed in weight gain, bloating, pedal edema, polyuria, skin striae, and Herpes zoster rash ([4]; steroid-related conditions): 1 AE each | Subjects who reduced their dexamethasone dosage during the study [5]: 11 subjects | Subjects who took no concomitant dexamethasone [5]: 2 subjects | Effect on vascular leakage and tissue swelling [6]: inhibit vascular leakage of plasma constituents and associated tissue swelling | Side-effects of intravenous administration ([7]; human, in vivo, iv): some side-effects including headache, hypotension, facial flushing, diarrhea, shortness of breath, nausea and lethargy | Tolerability in humans ([7]; human, in vivo, iv): well-tolerated | Neurological symptoms or physical findings ([7]; intravenous bolus and continuous infusions): showed improvement in neurological symptoms or physical findings | Typically refractory patients who successfully reduced dexamethasone ([8]; 5 of the 8 patients 55 years of age): 62.5% | Typically refractory patients who successfully reduced dexamethasone ([8]; 7 of the 10 patients with recurrent brain tumor): 70% | Patients with increased NCD ([8]; 7 of the 20 patients): 35% | Mean NCD ([8]; 7 patients whose NCD was increased): +10.7 mg/d | Median NCD ([8]; 7 patients whose NCD was increased, range +2.0 mg/d to +46.0 mg/d): +5.0 mg/d | Median maximum percent change from baseline in dexamethasone dose ([8]; 7 patients with increased NCD, range +50 to +200%): +100% | Typically refractory patients who successfully reduced dexamethasone ([8]; 11 of the 16 patients in whom prior dexamethasone reductions had been unsuccessful): 69% | Patients with reduced NCD ([8]; 11 of the 20 patients): 55% | Mean NCD ([8]; 11 patients whose NCD was reduced): -10.7 mg/day | Median NCD ([8]; 11 patients whose NCD was reduced, range −0.5 to −36 mg/d): -3.0 mg/day | Median maximum percent change from baseline in dexamethasone dose ([8]; 11 patients with reduced NCD, range −11 to −100%): −87% | Patients discontinuing dexamethasone altogether ([8]; of the 11 patients with reduced NCD): 5 patients | Exposure to dexamethasone and steroid-related side-effects ([8]; patients with peritumoral brain edema): associated with reduced exposure to dexamethasone and improvement in steroid-related side-effects | Patients who took 0.0 mg/d dexamethasone from baseline to ≧24 weeks ([8]; two of 20 patients): 10% | Patients with normal or low serial serum cortisol levels ([9]; 15 of the 16 patients): 94% | AM serum cortisol, one patient ([9]; after 8 weeks on dexamethasone at 7.0-8.0 mg/d, low): 0.4 µg/dL | AM serum cortisol, one patient ([9]; after 16 weeks off dexamethasone, normalized): 25 µg/dL | AM serum cortisol, one patient ([9]; after discontinuation of dexamethasone for 4 weeks, moderately elevated): 39 µg/dL | Induction of hypercortisolism ([9]; dosing up to 48 weeks): did not induce hypercortisolism | Subjects with improvement or resolution of steroid related conditions [10]: 45%

— patent publication US20120077744A1, “STEROID-SPARING METHODS OF TREATING BRAIN EDEMA” (Neutron Limited, priority 2007, published 2012)
